{"source": "patent US20120083522A1", "about": "“MODULATION OF INFLAMMATORY RESPONSES BY FACTOR XI” (Isis Pharmaceuitcals, inc., priority 2009, published 2012)", "key": {"[1]": {"system": "murine Factor XI mRNA", "experiment": "In vivo antisense inhibition of murine Factor XI: liver RNA analysis (Example 10)", "conditions": "BALB/c mice, relative to PBS control", "procedure": "Several antisense oligonucleotides targeted to murine Factor XI mRNA (GENBANK Accession No. NM_028066.1, incorporated herein as SEQ ID NO: 6) showing statistically significant dose-dependent inhibition from the in vitro study were evaluated in vivo. BALB/c mice were treated with ISIS 404057 ([…], target start site 487, incorporated herein as SEQ ID NO: 10) and ISIS 404071 ([…], target start site 869, incorporated herein as SEQ ID NO: 11).\n(§1) BALB/c mice were injected with 5 mg/kg, 10 mg/kg, 25 mg/kg, or 50 mg/kg of ISIS 404057 or ISIS 404071 twice a week for 3 weeks. A control group of mice was injected with phosphate buffered saline (PBS) twice a week for 3 weeks. Mice were sacrificed 5 days after receiving the last dose. Whole liver was harvested for RNA analysis and plasma was collected for protein analysis.\nRNA was extracted from liver tissue for real-time PCR analysis of Factor XI. […] Results are presented as percent inhibition of Factor XI, relative to control."}, "[2]": {"system": "murine Factor XI protein", "experiment": "In vivo antisense inhibition of murine Factor XI: plasma protein analysis (Example 10)", "conditions": "BALB/c mice; for % inhibition: Factor XI protein, relative to PBS control", "procedure": "as §1\nResults are presented as percent inhibition of Factor XI, relative to PBS control."}, "[3]": {"system": "collagen-induced arthritis model", "experiment": "Arthritis Study B: collagen-induced arthritis, clinical effects (Example 11)", "type": "in vivo, DBA/1J mice", "procedure": "The effect of inhibition of Factor XI and its role in fibrin accumulation in the joints leading to joint inflammation and rheumatoid arthritis was evaluated in a murine collagen-induced arthritis (CIA) model. […] Arthritis induced in mice administered collagen can be visually assessed and clinically scored as described by Marty et al. (J Clin Invest, 107:631-640, 2001) where 1 point is given for each swollen digit except the thumb (maximum, 4), 1 point is given for the tarsal or carpal joint, and 1 point is given for the metatarsal or metacarpal joint with a maximum score of […]. Each paw was graded individually, the cumulative clinical arthritic score per mouse reaching a maximum of 22 points\nIn a group of 20 DBA/1J mice, 20 mg/kg of ISIS 404071 were injected subcutaneously twice a week for ten weeks. In a second group of 20 DBA/1J mice, 20 mg/kg of ISIS 404057 were injected subcutaneously twice a week for ten weeks. In a third control group of 20 DBA/1J mice, 20 mg/kg of ISIS 421208 were injected subcutaneously twice a week for ten weeks. Two control groups of 20 mice each were injected with PBS twice a week for ten weeks.\nTwo and a half weeks after the first oligonucleotide dose, type II bovine collagen in complete Freund's adjuvant was injected subcutaneously at the base of the tail in all the experimental groups and one PBS control group. A booster injection containing 100 μg collagen type II in incomplete Freund's adjuvant was injected subcutaneously at the base of the tail at a different injection site on day 21 after the first collagen injection in these groups.\nMice in all groups were examined daily after day 30 after the first collagen injection for the visual appearance of arthritis in peripheral joints. The results in Table 22 are expressed as percent change compared to the PBS control except for the liver and spleen weight."}, "[4]": {"system": "P-selectin", "experiment": "Colitis Study C: serum P-selectin", "type": "in vivo, mice", "procedure": "The effect of antisense inhibition of Factor XI on serum P-selectin levels was evaluated in this study. DSS administration led to increase in P-selectin levels which was reduced by treatment with ISIS 404071."}, "[5]": {"system": "OVA/alum-induced asthma model", "experiment": "OVA-induced asthma model: BAL eosinophil recruitment (Example 13)", "type": "in vivo, BALB/c mice", "procedure": "The effect of antisense oligonucleotide inhibition of Factor XI and its role in ameliorating asthma was evaluated in an OVA/alum-induced asthma model. Administration of ovalbumin to animals is a well known method to induce […] and has been previously described by Henderson et al. (J. Exp. Med., 1996, 184: 1483-1494).\n(§2) The mice were divided into four treatment groups of 5 mice each. One group received subcutaneous injections of ISIS 404071 at a dose of 50 mg/kg twice a week for 4 weeks. One group of mice received subcutaneous injections of control oligonucleotide, ISIS 421208, which is a mismatch oligonucleotide sequence of ISIS 404071, at a dose of 50 mg/kg twice a week for 4 weeks. Two groups of mice received subcutaneous injections of PBS twice a week for 4 weeks. One PBS group remained untreated and served as the control group. The second PBS group and both the oligonucleotide treated groups were injected with OVA/alum on days 0 and 14 and nebulized with OVA in PBS on days 24, 25, and 26. The first OVA application served to sensitize the mice against OVA while the second was a challenge application to provoke an asthmatic reaction. Two days following the final dose, the mice were euthanized, bronchial lavage (BAL) was collected and analyses done.\nBronchial asthma, even in its mild form, is characterized by local infiltration and activation of inflammatory and immunoeffector cells, including T lymphocytes, macrophages, eosinophils, and mast cells (Smith D. L. et al., Am. Rev. Respir. Dis. 1993. 148: 523-532). The effect of treatment with ISIS 404071 on bronchoalveolar lavage (BAL) eosinophil recruitment was assessed. BAL cells were stained with hemotoxylin and eosin (H&E). The results are presented in Table 49 as a percentage of total cells in BAL."}, "[6]": {"system": "OVA/alum-induced asthma model", "experiment": "OVA-induced asthma model: mucus production (Example 13)", "type": "in vivo, BALB/c mice", "procedure": "as §2\nLung sections were stained with periodic acid […] (PAS) base stain that stains mucus, which is produced during asthma attacks (Rogers, D. F. Curr. Opin Pharmacol. 2004. 4: 241-250). The number of airways containing mucus as a percentage of the total airways in the lungs was evaluated."}, "[7]": {"conditions": "5 mg/kg twice a week for 3 weeks"}, "[8]": {"conditions": "10 mg/kg twice a week for 3 weeks"}, "[9]": {"conditions": "25 mg/kg twice a week for 3 weeks"}, "[10]": {"conditions": "50 mg/kg twice a week for 3 weeks"}, "[11]": {"conditions": "DBA/1J mice, 20 mg/kg s.c. twice a week for ten weeks, end of study"}}, "note": "In the oligonucleotide strings, read from the 5' end, every base follows the letter of its sugar. An asterisk marks phosphorothioate; unmarked linkages are phosphodiester. Other units and linkages are bracketed, terminal groups are in braces. A string of capitals states the bases alone. e = 2'-O-(2-methoxyethyl) (MOE); [5mC] = 5-methylcytosine; d = 2'-deoxy (DNA)"}
{"sequence": "TGGTAATCCACTTTCAGAGG (eT*eG*eG*eT*eA*dA*dT*d[5mC]*d[5mC]*dA*d[5mC]*dT*dT*dT*d[5mC]*eA*eG*eA*eG*eG) [ISIS 404071, 5-10-5 MOE gapmer targeting murine Factor XI, target start site 869]", "values": [{"measurement": "% inhibition", "setting": "[1]; [7]", "value": 72, "unit": "%"}, {"measurement": "% inhibition", "setting": "[1]; [8]", "value": 82, "unit": "%"}, {"measurement": "% inhibition", "setting": "[1]; [9]", "value": 93, "unit": "%"}, {"measurement": "% inhibition", "setting": "[1]; [10]", "value": 96, "unit": "%"}, {"measurement": "Factor XI protein (in words)", "setting": "[2]; 5-50 mg/kg twice a week for 3 weeks", "value": "significant dose-dependent reduction of Factor XI protein"}, {"measurement": "% inhibition", "setting": "[2]; [7]", "value": 39, "unit": "%"}, {"measurement": "% inhibition", "setting": "[2]; [8]", "value": 67, "unit": "%"}, {"measurement": "% inhibition", "setting": "[2]; [9]", "value": 89, "unit": "%"}, {"measurement": "% inhibition", "setting": "[2]; [10]", "value": 96, "unit": "%"}, {"measurement": "amount of arthritis assessed (in words)", "setting": "[3]; Arthritis Study B, 20 mg/kg twice a week for ten weeks, compared to untreated mice", "value": "significantly decreased the amount of arthritis"}, {"measurement": "% of CIA", "setting": "[3]; [11]", "value": 64, "unit": "%"}, {"measurement": "% of paws affected", "setting": "[3]; [11]", "value": 20, "unit": "%"}, {"measurement": "Average no. of paws affected", "setting": "[3]; [11]", "value": 0.82}, {"measurement": "Clinical severity of CIA", "setting": "[3]; [11]", "value": 4.6}, {"measurement": "P-selectin levels (in words)", "setting": "[4]", "value": "reduced"}, {"measurement": "P-selectin", "setting": "[4]; DSS-induced colitis mice", "value": 83, "unit": "ng/mL"}, {"measurement": "BAL eosinophil recruitment (in words)", "setting": "[5]", "value": "decreased the eosinophil recruitment"}, {"measurement": "Eosinophils", "setting": "[5]; percentage of total cells in BAL, 50 mg/kg s.c. twice a week for 4 weeks", "value": 32, "unit": "%"}, {"measurement": "mucus production in the lungs (in words)", "setting": "[6]", "value": "decreased mucus production in the lungs"}, {"measurement": "Mucus production, % airways containing mucus", "setting": "[6]; BALB/c mice, 50 mg/kg s.c. twice a week for 4 weeks, PAS stain of lung sections", "value": 34, "unit": "% airways"}]}
